Literature values, collected in patent US20190151293A1, “PHARMACEUTICAL COMPOSITION COMPRISING A NON-PURINE SELECTIVE INHIBITOR OF XANTHINE OXIDASE AND METHOD FOR THE PREPARATION THEREOF” (PHARMATHEN S.A., priority 2016, published 2019).
Read-outs that look alike come from different tables or passages of the source.

How the values were obtained:
[1] = system: other enzymes involved in purine or pyrimidine metabolism; conditions: at therapeutic concentrations
xanthine oxidase (XO) = xanthine oxidase (XO) (Homo sapiens, UniProt P47989); conditions: oxidised and reduced forms of XO
Sequence of xanthine oxidase (XO) (P47989 whole entry): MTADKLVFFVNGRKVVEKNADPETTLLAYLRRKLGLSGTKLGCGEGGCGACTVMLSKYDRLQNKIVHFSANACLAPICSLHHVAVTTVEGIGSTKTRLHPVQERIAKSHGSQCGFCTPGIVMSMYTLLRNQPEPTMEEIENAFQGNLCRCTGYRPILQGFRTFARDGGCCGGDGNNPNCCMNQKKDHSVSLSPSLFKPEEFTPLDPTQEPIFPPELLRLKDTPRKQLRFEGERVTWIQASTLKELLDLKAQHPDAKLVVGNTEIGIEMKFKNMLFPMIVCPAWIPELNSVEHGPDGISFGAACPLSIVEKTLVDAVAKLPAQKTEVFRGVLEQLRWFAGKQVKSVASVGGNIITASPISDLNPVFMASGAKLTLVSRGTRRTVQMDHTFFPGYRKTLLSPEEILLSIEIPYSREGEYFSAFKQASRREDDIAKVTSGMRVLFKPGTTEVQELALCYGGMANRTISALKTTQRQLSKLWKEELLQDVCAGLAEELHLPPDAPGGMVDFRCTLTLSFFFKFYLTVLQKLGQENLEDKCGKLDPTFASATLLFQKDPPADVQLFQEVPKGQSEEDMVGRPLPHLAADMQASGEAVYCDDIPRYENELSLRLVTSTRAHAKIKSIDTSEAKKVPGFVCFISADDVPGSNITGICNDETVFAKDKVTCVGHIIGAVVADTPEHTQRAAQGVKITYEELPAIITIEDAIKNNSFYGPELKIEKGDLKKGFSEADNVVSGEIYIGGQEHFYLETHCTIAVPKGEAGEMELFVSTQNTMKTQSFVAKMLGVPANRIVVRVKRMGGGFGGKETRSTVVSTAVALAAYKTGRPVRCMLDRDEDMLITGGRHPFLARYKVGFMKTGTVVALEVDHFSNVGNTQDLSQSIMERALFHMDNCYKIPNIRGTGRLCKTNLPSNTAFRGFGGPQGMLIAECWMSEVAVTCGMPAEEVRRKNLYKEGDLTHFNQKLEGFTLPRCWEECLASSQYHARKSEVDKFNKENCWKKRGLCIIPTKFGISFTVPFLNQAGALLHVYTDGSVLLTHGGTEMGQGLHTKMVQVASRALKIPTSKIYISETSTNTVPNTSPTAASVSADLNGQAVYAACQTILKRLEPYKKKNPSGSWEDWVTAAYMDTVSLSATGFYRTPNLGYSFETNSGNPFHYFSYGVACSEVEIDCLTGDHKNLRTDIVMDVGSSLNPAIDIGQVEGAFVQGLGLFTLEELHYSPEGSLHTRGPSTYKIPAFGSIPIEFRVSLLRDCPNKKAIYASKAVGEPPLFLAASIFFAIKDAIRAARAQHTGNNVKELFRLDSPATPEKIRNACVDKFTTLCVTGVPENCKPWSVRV

Cc1nc(-c2ccc(OCC(C)C)c(C#N)c2)sc1C(=O)O [Form C]
Solubility of the crystal form, in words: good solubility

Cc1nc(-c2ccc(OCC(C)C)c(C#N)c2)sc1C(=O)O [Febuxostat, 2-(3-cyano-4-isobutoxyphenyl)-4-methyl-1,3-thiazole-5-carboxylic acid]
Inhibition of other enzymes involved in purine or pyrimidine metabolism [1]: does not inhibit
Inhibition of XO (xanthine oxidase (XO)): inhibit both the oxidised and reduced forms of XO
Solubility, dependence on pH (higher in alkalic media): pH dependent
Solubility (in dimethylformamide): freely soluble
Solubility (in dimethylsulfoxide): soluble
Solubility (in ethanol): sparingly soluble
Solubility (in water): practically insoluble
